# Laboratory results: patent publication US11007167B2, “Methods of treating multiple sclerosis” (Biogen MA Inc., priority 2014, dated 2021)
# Entries after “also recorded” stand apart in the source; their conditions may differ. Counter-ions that a name gives are not always drawn.
# Experiments:
# JCV = settings: literature report; cited from earlier work
# MS patients [1] = experiment: Absolute lymphocyte count (ALC) profiles in DMF-treated MS patients (Phase 2b, DEFINE, CONFIRM, ENDORSE); type: in vivo, human
# Procedure: (§1) The Phase 2b study, DEFINE, and CONFIRM were multicenter, randomized, double-blind, placebo-controlled, parallel-group clinical trials of DMF as monotherapy for RRMS.
# The Phase 2b study was 12 months in duration, including a 6-month placebo-controlled part (Part 1) and a 6-month uncontrolled safety extension part (Part 2). During Part 1, patients were randomized equally to DMF 120 mg once daily (QD), 120 mg three times daily (TID), 240 mg TID, or placebo.
# (§2) DEFINE and CONFIRM were 2 years in duration. Patients were randomized equally to DMF 240 mg twice daily (BID), 240 mg TID, or matching placebo.
# ENDORSE is a multicenter, parallel-group, dose-blinded extension of DEFINE/CONFIRM with up to 8 additional years of follow-up.
# In the Phase 2b study, blood was collected every 4 weeks.
# In DEFINE and CONFIRM, blood was collected every 4 weeks for the first 3 months and every 12 weeks thereafter, and within 1 month after study withdrawal or study completion if not continuing in the extension study.
# In ENDORSE, blood was collected at baseline and every 12 weeks thereafter
# ALCs were graded per Common Terminology Criteria for Adverse Events (CTCAE; Table 9).^9
# Data from DEFINE and CONFIRM after subjects switched to alternative MS treatment were excluded.
# Data from the 6-month uncontrolled safety extension of the Phase 2b study were included.
# patients with RRMS [2] = experiment: Annualized relapse rate / clinical efficacy in DEFINE and CONFIRM; type: in vivo, human; settings: DMF 240 mg BID; for Rate ratio (95% CI) for adjusted ARR for DMF versus placebo: 2 years
# Excerpt: FIGS. 4A-4B depict reduction in ARR at 2 years in DEFINE (FIG. 4A) and CONFIRM (FIG. 4B) in patients in the DMF BID group with lymphopenia (at least 1 ALC less than LLN) or without lymphopenia (all ALCs greater than or equal to LLN) compared with all patients in placebo group. ARR=annualized relapse rate; CI=confidence interval. ^aDMF is delayed-release DMF (also known as gastro-resistant DMF, and as TECFIDERA®). ^bBased on negative binomial regression, adjusted for study, baseline EDSS (≤2.0 vs >2.0), baseline age (<40 vs ≥40), region, and number of relapses in the 1 year prior to study entry.
# as §1, §2
# MS patients [3] = experiment: Serious infections by worst post-baseline CTC grade (Phase 2b, DEFINE, CONFIRM, ENDORSE); type: in vivo, human
# Excerpt: The Phase 2b study, […], and CONFIRM were multicenter, randomized, double-blind, placebo-controlled, parallel-group clinical trials of DMF as monotherapy for RRMS. ALCs were graded per Common Terminology Criteria for Adverse Events (CTCAE; Table 9).^9
# patients with RRMS [4] = settings: DEFINE Phase 3 study; after two years of treatment; cited from earlier work
# patient with MS = experiment: Occurrence of progressive multifocal leukoencephalopathy (PML) in treated MS patients; settings: prolonged lymphopenia
# healthy volunteer = experiment: Healthy volunteer study: aspirin prior to DMF dosing (flushing); type: in vivo, human; settings: 325 mg non-enteric coated aspirin 30 minutes prior to DMF dosing
# Procedure: In a specific embodiment, a NSAID (e.g., aspirin) is administered concurrently, before, and/or after administration of the fumarate (e.g., DMF). […] Some subjects who experience flushing with gastrointestinal side effects may reduce the dose to 120 mg DMF BID temporarily. Within a month, the effective dose of 240 mg DMF BID or 240 mg DMF TID should be resumed.
# [5] = All ALCs ≥ 500/mm^3 within the first 1 year
# [6] = All ALCs ≥ 500/mm^3 within the first 6 months
# [7] = All ALCs ≥ 800/mm^3 within the first 1 year
# [8] = All ALCs ≥ 800/mm^3 within the first 6 months
# [9] = At least 1 ALC < 500/mm^3 (row r11) within the first 1 year
# [10] = At least 1 ALC < 500/mm^3 (row r12) within the first 1 year
# [11] = At least 1 ALC < 500/mm^3 (row r12) within the first 6 months
# [12] = percentage of the number with worst post-baseline count in that grade
compound,measurement,setting,value
"CCCCCCCCCCCCCCCCOCCCOP(=O)(O)CO[C@H](CO)Cn1ccc(N)nc1=O [CMX001, Hexadecyloxypropyl-Cidofovir]",Effect on JCV replication,JCV,suppress JVC by inhibiting viral DNA replication
"COC(=O)/C=C/C(=O)OC [DMF, dimethyl fumarate]",ALCs after discontinuation of treatment (following final dose),MS patients [1]; 9 patients with ALCs < 500 cells/μL for at least 6 months who discontinued or completed the study,ALCs generally increased; also recorded: All 9 patients showed increases in ALCs; also recorded: evidence of ALC improvement
same,"Patients who subsequently developed ALCs < 500/mm^3 persisting ≥ 6 months at any time, %",MS patients [1]; [5],(0.7) %
same,"Patients who subsequently developed ALCs < 500/mm^3 persisting ≥ 6 months at any time, n/N",MS patients [1]; [5],16/2409
same,"Patients who subsequently developed ALCs < 500/mm^3 persisting ≥ 6 months at any time, %",MS patients [1]; [6],(1.5) %
same,"Patients who subsequently developed ALCs < 500/mm^3 persisting ≥ 6 months at any time, n/N",MS patients [1]; [6],37/2446
same,"Patients who subsequently developed ALCs < 500/mm^3 persisting ≥ 6 months at any time, %",MS patients [1]; [7],(0) %
same,"Patients who subsequently developed ALCs < 500/mm^3 persisting ≥ 6 months at any time, n/N",MS patients [1]; [7],0/2050
same,"Patients who subsequently developed ALCs < 500/mm^3 persisting ≥ 6 months at any time, %",MS patients [1]; [8],(0.4) %
same,"Patients who subsequently developed ALCs < 500/mm^3 persisting ≥ 6 months at any time, n/N",MS patients [1]; [8],9/2219
same,"Patients who subsequently developed ALCs < 500/mm^3 persisting ≥ 6 months at any time, n/N",MS patients [1]; All ALCs ≥ LLN within the first 1 year of treatment,0/1876
same,"Patients who subsequently developed ALCs < 500/mm^3 persisting ≥ 6 months at any time, n/N",MS patients [1]; All ALCs ≥ LLN within the first 6 months of treatment,3/2083
same,"Patients who subsequently developed ALCs < 500/mm^3 persisting ≥ 6 months at any time, %",MS patients [1]; [9],(17) %
same,"Patients who subsequently developed ALCs < 500/mm^3 persisting ≥ 6 months at any time, n/N",MS patients [1]; [9],47/420
same,"Patients who subsequently developed ALCs < 500/mm^3 persisting ≥ 6 months at any time, %",MS patients [1]; At least 1 ALC < 500/mm^3 (row r11) within the first 6 months,(10) %
same,"Patients who subsequently developed ALCs < 500/mm^3 persisting ≥ 6 months at any time, %",MS patients [1]; [10],(51) %
same,"Patients who subsequently developed ALCs < 500/mm^3 persisting ≥ 6 months at any time, n/N",MS patients [1]; [10],31/61
same,"Patients who subsequently developed ALCs < 500/mm^3 persisting ≥ 6 months at any time, %",MS patients [1]; [11],(42) %
same,"Patients who subsequently developed ALCs < 500/mm^3 persisting ≥ 6 months at any time, n/N",MS patients [1]; [11],10/24
same,"Patients who subsequently developed ALCs < 500/mm^3 persisting ≥ 6 months at any time, n/N",MS patients [1]; At least 1 ALC < 500/mm^3 within the first 6 months,38/251
same,"Incidence of worst post-baseline ALC CTC grade 0, %","MS patients [1]; Total DMF, n = 2513",(61) %
same,"Incidence of worst post-baseline ALC CTC grade 1, %","MS patients [1]; Total DMF, n = 2513",(9) %
same,"Incidence of worst post-baseline ALC CTC grade 2, %","MS patients [1]; Total DMF, n = 2513",(21) %
same,"Incidence of worst post-baseline ALC CTC grade 3 or 4, %","MS patients [1]; Total DMF, n = 2513",(7) %
same,"Patients who experienced ALCs less than 500/mm^3 persisting for greater than or equal to 6 months, %","MS patients [1]; among patients treated for ≥ 6 months (N=2,099)",2.2%
same,Patients in whom ALCs remained greater than or equal to LLN,MS patients [1]; during the first 6 months,84%
same,Patients in whom ALCs remained greater than or equal to LLN,MS patients [1]; during the first year,76%
same,Course of ALCs with continued therapy,MS patients [1]; patients with ALCs < 500/mm^3 persisting ≥ 6 months,generally remained less than 500/mm^3
same,Decrease of mean ALCs during the first year of treatment,"MS patients [1]; then plateaued, remaining above LLN (910/mm^3) throughout the observation period",approximately 30%
same,Rate ratio (95% CI) for adjusted ARR for DMF versus placebo,"patients with RRMS [2]; CONFIRM, patients with treatment-associated lymphopenia","0.525 (0.365, 0.756)"
same,Rate ratio (95% CI) for adjusted ARR for DMF versus placebo,"patients with RRMS [2]; CONFIRM, patients without lymphopenia","0.599 (0.429, 0.835)"
same,Rate ratio (95% CI) for adjusted ARR for DMF versus placebo,"patients with RRMS [2]; DEFINE, patients with treatment-associated lymphopenia","0.424 (0.294, 0.611)"
same,Rate ratio (95% CI) for adjusted ARR for DMF versus placebo,"patients with RRMS [2]; DEFINE, patients without lymphopenia","0.509 (0.381, 0.681)"
same,"Reduction in ARR at 2 years versus placebo, patients with versus without lymphopenia",patients with RRMS [2]; DEFINE and CONFIRM,not substantially different
same,"Association of lymphopenia with risk of infections, serious infections, opportunistic infections","MS patients [3]; interim analysis of Phase 2b, DEFINE, CONFIRM, ENDORSE",not associated with an overall increased risk of infections or serious infections
same,"Serious infections, worst post-baseline CTC grade 0, %",MS patients [3]; [12],(3) %
same,"Serious infections, worst post-baseline CTC grade 1, %",MS patients [3]; [12],(5.5) %
same,"Serious infections, worst post-baseline CTC grade 2, %",MS patients [3]; [12],(4) %
same,"Serious infections, worst post-baseline CTC grade 3 or 4, %",MS patients [3]; [12],(3) %
same,"Clinical relapses, disability progression, lesion number and volume compared with placebo",patients with RRMS [4],"significantly reduced clinical relapses, accumulation of disability progression, and lesion number and volume"
same,Cases of PML,"patient with MS; MS patient in clinical trial, severe",a case of PML
same,Lymphocyte counts of the patient who developed PML,patient with MS; 3.5 years duration,less than 0.5×10^9 /L
OC(c1cc(C(F)(F)F)nc2c(C(F)(F)F)cccc12)C1CCCCN1 (centres unmarked) [Mefloquine],Effect on JCV replication,JCV,block JCV replication without significant toxicity
CC(=O)Oc1ccccc1C(=O)O [aspirin],Occurrence and severity of flushing,healthy volunteer,reduce the occurrence and severity of flushing
